Holding throughout (assay): growth of human tumour cells (NCI), 48 h
Test [1] deals with SK-MEL-2.
Test [2] has as its system 786-0.
The test system of test [3] is OVCAR-5.
For test [4], the system named is NCI-H23.
Test [5] concerns M14.
The test system of test [6] is UACC-257.
Test [7] concerns SK-MEL-28.
In test [8] the test system is SF-295.
The test system of test [9] is BT-549.
In test [10] the test system is SF-268.
The subject of test [11] is K562.
The subject of test [12] is OVCAR-8.
Test [13] deals with SF-539.
Test [14] deals with SW-620.
In test [15] the test system is MCF7.
Test [16] has as its system Hs-578T.
Test [17] deals with SNB-75.
The subject of test [18] is LOX IMVI.
The subject of test [19] is A498.

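Values below derive from 48-hour exposures of cells grown in 96-well plates, with endpoints linearly interpolated between the two concentrations bracketing the appropriate inhibition level. GI50: concentration for 50% inhibition of growth.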 Activity calls are given as the source filed them. Cut-off read from the data, not from the text of the source: active = GI50 up to about 1.1 µM and inactive = higher. A value given as a limit tells only on which side of the number the result lay.

For the molecule `COC(=O)C1=C(C(=O)OC)C2(C)CCC(=O)C1O2` (configuration not stated), the GI50 in test [1], in [2], in [3], in [4], in test [5] and in [6] was > 10 µM (inactive) each time. Also, the GI50 in test [7], in [8], in test [9], in [10], in test [11] and in [12] was > 10 µM (inactive) each time. Moreover, the GI50 in test [13] was > 10 µM (inactive); in test [14] it was > 10 µM (inactive); in test [15], > 10 µM (inactive); in test [16] it was > 10 µM (inactive); in [17], 2.7 µM (inactive); in test [18], > 10 µM (inactive). Also, in test [19], the GI50 is > 10 µM (inactive).
Take `COC(=O)c1ccccc1/C=C1\Cc2c(C)c3c(c(C)c2C1=O)CCC3`: the GI50 was 6.27 µM (inactive) in test [1]; 46.6 µM (inactive) in [2]; > 100 µM (inactive) in test [3]; > 100 µM (inactive) in [4]; > 100 µM (inactive) in test [5]; > 100 µM (inactive) in test [6]. Besides, the GI50 in [7] was > 100 µM (inactive); in test [8], > 100 µM (inactive); in [9], > 100 µM (inactive); in [10], 64.1 µM (inactive); in test [11], > 100 µM (inactive); in test [12], > 100 µM (inactive). The GI50 in test [13] was 88.9 µM (inactive); in test [14] it was > 100 µM (inactive); in [15], > 100 µM (inactive); in [16] it was 24.5 µM (inactive); in test [17], 63.7 µM (inactive); in test [18], > 100 µM (inactive). Also, the GI50 in test [19] was > 100 µM (inactive).
For `CNC(=S)N/N=C/c1cccc(C)n1`, the GI50 in [1] is 49.1 µM (inactive); in test [2] it was 24.6 µM (inactive); in test [3] it was 37.8 µM (inactive); in [4], 31.4 µM (inactive); in test [5], 21.3 µM (inactive); in test [6], 32.7 µM (inactive). Also, the GI50 in test [7] was 56.5 µM (inactive); in test [8], 32.7 µM (inactive); in test [9] it was 23.5 µM (inactive); in test [10], 25.9 µM (inactive); in test [11] it was 42.8 µM (inactive); in [12] it was 23.6 µM (inactive). Besides, the GI50 was 18.4 µM (inactive) in [13]; 49.1 µM (inactive) in test [14]; 38.6 µM (inactive) in [15]; > 91.8 µM (inactive) in [16]; 37.9 µM (inactive) in [17]; 24.7 µM (inactive) in test [18]. The GI50 in test [19] was 20.7 µM (inactive).
Take `CC(C)(C)c1ccc(-n2c3nc(=O)n(-c4ccccc4C(F)(F)F)c(=O)c-3cc3ccccc32)cc1`: the GI50 in [1] is 14.6 µM (inactive); in test [2] it was 25.7 µM (inactive); in [3], 20.2 µM (inactive); in test [4], 32.3 µM (inactive); in [5], 14.4 µM (inactive); in [6], 19.6 µM (inactive). Moreover, the GI50 in [7] is 8.26 µM (inactive); in test [8], 19 µM (inactive); in test [9], 24 µM (inactive); in test [10], 30.5 µM (inactive); in test [11] it was 16.9 µM (inactive); in [12] it was 19.6 µM (inactive). Also, the GI50 in test [13] was 23.8 µM (inactive); in test [14], 25.8 µM (inactive); in test [15], 15.6 µM (inactive); in test [16], 21.9 µM (inactive); in test [17] it was 15.6 µM (inactive); in test [18] it was 11.9 µM (inactive). Moreover, the GI50 in test [19] is 31.3 µM (inactive).
Take `Cn1c(=O)c2nc(CCCCc3nc4c(=O)n(C)c(=S)n(C)c4[nH]3)[nH]c2n(C)c1=S`: the GI50 in test [1], in test [2], in [3], in test [4], in test [5] and in [6] was > 100 µM (inactive) each time. In addition, the GI50 in [7] is > 100 µM (inactive); in test [8], 88.1 µM (inactive); in test [9] it was > 100 µM (inactive); in test [10], > 100 µM (inactive); in test [11] it was > 100 µM (inactive); in [12], > 100 µM (inactive). For the same molecule, the GI50 is 40.8 µM (inactive) in test [13]; > 100 µM (inactive) in test [14]; > 100 µM (inactive) in test [15]; > 100 µM (inactive) in test [16]; 23.4 µM (inactive) in [17]; > 100 µM (inactive) in test [18]. In test [19], the GI50 is > 100 µM (inactive).
With `COc1ccc2nccc(NCCCN3CCN(CCCNc4ccnc5ccc(OC)cc45)CC3)c2c1`, the GI50 in test [1] was 1.25 µM (inactive); in [2], 0.582 µM (active); in test [3], 0.826 µM (active); in test [4], 0.51 µM (active); in test [5], 1.08 µM (active); in [6] it was 1.04 µM (active). For the same molecule, the GI50 was 1.09 µM (active) in test [7]; 0.975 µM (active) in [8]; 4.27 µM (inactive) in test [9]; 0.432 µM (active) in test [10]; 0.228 µM (active) in [11]; 0.612 µM (active) in test [12]. The GI50 in [13] is 0.173 µM (active); in [14] it was 0.11 µM (active); in [15], 0.0403 µM (active); in test [16], 0.237 µM (active); in test [17], 0.543 µM (active); in [18], 0.272 µM (active). Besides, the GI50 in test [19] was 2.58 µM (inactive).
In the case of `O=[Se](O)O`, the GI50 was 2.6 µM (inactive) in test [1]; 2.47 µM (inactive) in [2]; 1.95 µM (inactive) in test [3]; 3.72 µM (inactive) in [4]; 3.44 µM (inactive) in test [5]; 12.6 µM (inactive) in test [6]. For the same molecule, the GI50 is 3.27 µM (inactive) in [7]; 0.536 µM (active) in test [8]; 4.9 µM (inactive) in test [9]; 1.18 µM (inactive) in test [10]; > 28.2 µM (inactive) in test [11]; 2.88 µM (inactive) in test [12]. In addition, the GI50 in test [13] was 0.912 µM (active); in test [14], 12.9 µM (inactive); in test [15] it was 9.75 µM (inactive); in test [16] it was 0.67 µM (active); in test [17], 1.49 µM (inactive); in test [18], 2.76 µM (inactive). For the same molecule, the GI50 in test [19] is 19 µM (inactive).
For `O=C1Nc2cccc(Cl)c2/C1=C\c1c(Cl)nc2n1CCS2`, the GI50 in test [1], in test [2], in [3], in test [4], in [5] and in [6] was > 100 µM (inactive) throughout. For the same molecule, the GI50 in [7], in [8], in test [9], in [10], in test [11] and in [12] was > 100 µM (inactive) each time. Further, the GI50 in [13] was 89.1 µM (inactive); in [14], > 100 µM (inactive); in [15], 8.43 µM (inactive); in [16], > 100 µM (inactive); in [17], > 100 µM (inactive); in test [18], > 100 µM (inactive). In test [19], the GI50 is > 100 µM (inactive).

(Values after ChEMBL document CHEMBL1201862, “PubChem BioAssay data set” (2004).)
